Test results from ChEMBL document CHEMBL4004860, “Medicinal plants used as anthelmintics: Ethnomedical, pharmacological, and phytochemical studies” (Eur J Med Chem, 2017).

Experiments:
Type in all cases: functional
Meloidogyne incognita [1] = assay: Nematocidal activity against Meloidogyne incognita; details: for IC50: Meloidogyne incognita
Rodentolepis nana = assay: Antihelmintic activity against Hymenolepis nana
Schistosoma mansoni = assay: Antiparasitic activity against Schistosoma mansoni
[2] = test system: Nippostrongylus brasiliensis; assay: Nematocidal activity against Nippostrongylus brasiliensis L4 larval stage
[3] = Antiparasitic activity against Taenia solium
Caenorhabditis elegans = assay: Nematocidal activity against Caenorhabditis elegans
[4] = test system: Trichostrongylus colubriformis; assay: Antihelmintic activity against Trichostrongylus colubriformis
Haemonchus contortus [5] = assay: Antihelmintic activity against Haemonchus contortus L3 larval stage
Taenia crassiceps = assay: Cysticidal activity against Taenia crassiceps cysts after 11 days by trypan blue exclusion method; details: 264 h
Haemonchus contortus [6] = assay: Nematocidal activity against Haemonchus contortus
Meloidogyne incognita [7] = assay: Nematocidal activity against Meloidogyne incognita second-stage juveniles up to 72 hrs
Panagrellus redivivus = assay: Antiparasitic activity against Panagrellus redivivus
[8] = test system: Bursaphelenchus xylophilus; assay: Antiparasitic activity against Bursaphelenchus xylophilus
Metaphire posthuma = assay: Antihelmintic activity against Pheretima posthuma
Ascaridia galli = assay: Antihelmintic activity against Ascaridia galli
Brugia malayi = assay: Antiparasitic activity against Brugia malayi
Meloidogyne incognita [9] = assay: Nematocidal activity against Meloidogyne incognita second-stage juveniles after 3 days by light microscopic method
Setaria cervi = assay: Antiparasitic activity against Setaria cervi
Haemonchus contortus [10] = assay: Antihelmintic activity against egg stage of Haemonchus contortus
Haemonchus contortus [11] = assay: Antihelmintic activity against larval stage of Haemonchus contortus
Paramphistomum = assay: Antiparasitic activity against Paramphistomum sp.
[12] = test system: Raillietina echinobothrida; assay: Antiparasitic activity against Raillietina echinobothrida
Ascaris suum = assay: Antiparasitic activity against L3 and L4 larval stages of Ascaris suum

`CC1(C)C[C@@H](O)[C@]2(C(=O)O)CC[C@]3(C)C(=CC[C@@H]4[C@@]5(C)CCC(=O)C(C)(C)[C@@H]5CC[C@]43C)[C@@H]2C1` showed an EC (Meloidogyne incognita [1]) of 2.12 mM.
For `CCCCC[C@H](O)CC(=O)CCc1cc(O)c(O)c(OC)c1`, the EC (Rodentolepis nana) was 0.001 mM.
In the case of `CCCC(=O)C1=C(O)C(C)(C)C(O)=C(Cc2c(OC)cc(O)c(C(=O)CCC)c2O)C1=O` [DESASPIDIN], the EC (Schistosoma mansoni) is reported as 0.01 mM.
Work on `C=C1CC[C@H]2[C@@](C)(CCC[C@]2(C)C(=O)O)[C@@H]1C/C=C(\C)[C@H]1CCc2c(O)c(C(=O)CCC)c(O)c(CC3=C(O)C(C)(C)C(O)=C(C(C)=O)C3=O)c2O1` yielded an IC50 [2] of 22 µM.
`CCCCCC(=O)/C=C(O)/C=C/c1ccc(O)c(OC)c1` gave an EC (Rodentolepis nana) of 0.001 mM.
`CCCCCCCCCCCCCCCCC(=O)OC[C@@H](O)CO` gave an EC [3] of 29.5 mM.
With `CC1=CC2C(=O)c3cccc(O)c3C(=O)C2C(O)=C1O` (stereo not given) the EC (Schistosoma mansoni) was 0.19 mM.
`CCCCCCCCC[C@H](O)CC(=O)CCc1ccc(O)c(OC)c1` gave an EC (Rodentolepis nana) of 0.001 mM.
`CC(C)=CC(=O)O[C@@H]1CC(C)(C)C[C@H]2C3=CC(=O)[C@@H]4[C@]56CC[C@](O)(OC5)C(C)(C)[C@@H]6CC[C@@]4(C)[C@]3(C)CC[C@@]12C(=O)O` showed an EC (Meloidogyne incognita [1]) of 1.71 mM.
For `C=C(C)[C@@H]1CC[C@]2(C(=O)O)CC[C@]3(C)[C@H](CC[C@@H]4[C@@]5(C)CC[C@H](O)C(C)(C)[C@@H]5CC[C@]43C)[C@@H]12` [BETULINIC ACID], the IC50 (Caenorhabditis elegans) was 150 to 220 µM, the IC50 [4] was 180 µM and the IC50 (Haemonchus contortus [5]) was 110 µM. For the same compound, the EC [3] was 21.9 mM.
With `C=C1CC[C@H]2[C@@](C)(CCC[C@]2(C)C(=O)O)[C@@H]1C/C=C(\C)[C@@H]1CCc2c(O)c(C(=O)CCC)c(O)c(CC3=C(O)C(C)(C)C(O)=C(C(C)=O)C3=O)c2O1` the IC50 [2] was 34 µM.
For `CCCCC[C@H](O)CC(=O)CCc1ccc(O)c(OC)c1` [GINGEROL], the EC (Rodentolepis nana) was 0.001 mM.
`CC[C@H](CC[C@@H](C)[C@H]1CC[C@]2(C)[C@]1(C)CC[C@@H]1[C@@]3(C)CC[C@H](O[C@@H]4O[C@H](CO)[C@@H](O)[C@H](O)[C@H]4O)CC3=CC[C@]12C)C(C)C` showed an EC [3] of 17.34 mM.
Compound `C[C@H]1CC[C@@]2(OC1)O[C@H]1C[C@H]3[C@@H]4CC[C@H]5C[C@@H](O[C@@H]6O[C@H](CO)[C@H](O[C@@H]7O[C@H](CO)[C@@H](O)[C@H](O[C@@H]8OC[C@@H](O)[C@H](O)[C@H]8O)[C@H]7O[C@@H]7OC[C@@H](O)[C@H](O)[C@H]7O)[C@H](O)[C@H]6O[C@@H]6O[C@@H](C)[C@H](O)[C@@H](O)[C@H]6O)CC[C@]5(C)[C@H]4CC[C@]3(C)[C@H]1[C@@H]2C` has an IC50 (Caenorhabditis elegans) of 60 µM.
Work on `O=C1c2cccc(O)c2C(=O)C2C(O)=C(O)C(CO)=CC12` (stereo not given) yielded an EC (Schistosoma mansoni) of 0.17 mM.
For `O=c1cc(-c2ccccc2)oc2cc(O)cc(O)c12` [CHRYSIN], the IC50 (Taenia crassiceps) was 80 µM.
In the case of `C=C1CC[C@H]2[C@@](C)(CCC[C@]2(C)C(=O)O)[C@@H]1C/C=C(\C)[C@@H]1CCc2c(C)c(CC3=C(O)C(C)(C)C(O)=C(C(C)=O)C3=O)c(O)c(C(=O)CCC)c2O1`, the IC50 [2] is reported as 118 µM.
For `CCCCCCCCC/C=C/C(=O)CCc1ccc(O)c(OC)c1`, the EC (Rodentolepis nana) was 0.001 mM.
Work on `C=C1C(=O)O[C@@H]2[C@H]3C(CO)=CC(=O)C3=C(C)CC[C@@H]12` [DEOXYLACTUCIN] yielded an EC (Haemonchus contortus [6]) of 4.99 mM.
Compound `COc1cc(/C=C/C(=O)CC(=O)/C=C/c2ccc(O)c(OC)c2)ccc1O` [CURCUMIN] has an EC (Schistosoma mansoni) of 0.005 mM.
For `CC(C)[C@]12C=C[C@](C)(CC1)COOC2`, the IC50 (Meloidogyne incognita [7]) was 7860 µM.
For `C=C1C(=O)O[C@@H]2[C@H]1CC/C(C)=C/CC[C@]1(C)O[C@@H]21`, the IC50 (Panagrellus redivivus) was 180 µM and the IC50 [8] was 280 µM.
For `O=C1OCCN2Oc3ccccc3C12` (stereo not given), the EC (Metaphire posthuma) was 5.23 mM and the EC (Ascaridia galli) was 5.23 mM.
`CCC/C=C/C(=O)CCc1ccc(O)c(OC)c1` gave an EC (Rodentolepis nana) of 0.001 mM.
With `C=CCc1ccc(OC)c(OC)c1` [METHYLEUGENOL] the IC50 (Meloidogyne incognita [1]) was 500 µM.
Compound `C=CCc1ccc(OC)cc1` [ESTRAGOLE] has an IC50 (Meloidogyne incognita [1]) of 1250 µM.
With `CCO[C@@H]1O[C@H](CO)[C@H](O)[C@H](O)[C@H]1O` the EC (Brugia malayi) was >2.4 mM.
With `CO[C@H]1[C@H](O)[C@@H](O)[C@@H](O)[C@H](O)[C@@H]1O` [METHYLINOSITOL] the IC50 (Haemonchus contortus [5]) was 22700 µM.
`O=C(O)c1ccc(O)c(O)c1` [PROTOCATECHUIC ACID] showed an EC (Meloidogyne incognita [9]) of 0.78 mM.
`CCCCC/C=C/C(=O)CCc1ccc(O)c(OC)c1` [SHOGAOL] gave an EC (Rodentolepis nana) of 0.001 mM.
In the case of `C[C@H]1[C@H](C)CC[C@]2(C(=O)O)CC[C@]3(C)C(=CC[C@@H]4[C@@]5(C)CC[C@H](O)C(C)(C)[C@@H]5CC[C@]43C)[C@H]12` [URSOLIC ACID], the IC50 (Caenorhabditis elegans) is reported as 50 µM, the EC (Meloidogyne incognita [1]) is reported as 2.18 mM and the EC (Setaria cervi) is reported as 0.004 mM.
For `C=C1C(=O)O[C@@H]2[C@H]3C(CO)=CC(=O)C3=C(C)C[C@@H](O)[C@@H]12` [LACTUCIN], the EC (Haemonchus contortus [6]) was 2.89 mM.
With `C=CCc1ccc(O)c(OC)c1` [EUGENOL] the IC50 (Caenorhabditis elegans) was 370 µM and the IC50 (Meloidogyne incognita [1]) was 400 µM.
Compound `C=C(C)[C@@H]1CCC2(C)OC2C1` (single isomer, unassigned; (+)) has an EC (Schistosoma mansoni) of 0.16 mM.
`C=C(C)[C@@H]1CC[C@]2(C)CC[C@]3(C)[C@H](CC[C@@H]4[C@@]5(C)CC[C@H](O)C(C)(C)[C@@H]5CC[C@]43C)[C@@H]12` [LUPEOL] showed an IC50 (Caenorhabditis elegans) of 5 to 6 µM, an IC50 [4] of 190 µM and an IC50 (Haemonchus contortus [5]) of 50 µM.
With `CCCC(=O)C1=C(O)C(C)(C)C(O)=C(Cc2c(O)c(C)c(OC)c(C(=O)CCC)c2O)C1=O` the EC (Schistosoma mansoni) was 0.01 mM.
`CC(C)CCCCCCCCCCCCCC(=O)OC[C@@H](O)CO` gave an EC [3] of 29.5 mM.
In the case of `Cc1ccc(C(C)C)cc1` [P-CYMENE], the IC50 (Meloidogyne incognita [7]) is reported as 3240 µM.
Work on `CC(C)[C@@]12C=C[C@@](C)(CC1)OO2` [(Z)-ASCARIDOLE] yielded an IC50 (Meloidogyne incognita [7]) of 190 µM.
Compound `C/C=C/c1ccc(OC)cc1` [ANETHOLE] has an IC50 (Haemonchus contortus [10]) of 4650 µM and an IC50 (Haemonchus contortus [11]) of 14200 µM.
For `CCCCCCCCCCCCCCCCCCCCCC(=O)OC[C@@H](O)CO`, the EC [3] was 23.24 mM.
Work on `CC(C)=CC(=O)O[C@@H]1C[C@@H](C)C(C)(O)[C@H]2C3=CC[C@@H]4[C@@]5(C)CC[C@H](O)C(C)(C)[C@@H]5CC[C@@]4(C)[C@]3(C)CC[C@]21C(=O)O` (stereo not given in full) yielded an EC (Meloidogyne incognita [1]) of 1.75 mM.
Work on `O=C1C[C@@H](c2ccccc2)Oc2cc(O)cc(O)c21` [PINOCEMBRIN] yielded an IC50 (Taenia crassiceps) of 2 µM.
For `CC[C@H](CC[C@@H](C)[C@H]1CC[C@@H]2[C@]1(C)CC[C@H]1[C@@]2(C)CC=C2C[C@@H](O[C@@H]3O[C@H](CO)[C@@H](O)[C@H](O)[C@H]3O)CC[C@@]21C)C(C)C`, the IC50 (Caenorhabditis elegans) was 140 µM and the EC (Brugia malayi) was >0.86 mM.
`CC(C)=C[C@H](O)C[C@@H](C)[C@H]1CC[C@@]2(C)[C@@H]3[C@@H](O)C=C4[C@@H](CC[C@H](O)C4(C)C)[C@@]3(C=O)CC[C@]12C` gave an IC50 (Caenorhabditis elegans) of 30 µM.
For `O=c1c(-c2ccc(O)cc2)coc2cc(O)cc(O)c12` [GENISTEIN], the EC (Paramphistomum) was 0.74 mM and the EC [12] was 0.74 mM.
With `COc1cc(CC/C=C/C(=O)CCc2ccc(O)c(OC)c2)ccc1O` the EC (Rodentolepis nana) was 0.001 mM.
With `Cc1ccc(C(C)C)c(O)c1` [THYMOL] the IC50 (Haemonchus contortus [10]) was 3660 µM and the IC50 (Haemonchus contortus [11]) was 16600 µM.
Work on `CC1(C)OC(=O)NC(C(=O)O)c2ccc(O)cc21` (stereo not given) yielded an EC (Metaphire posthuma) of 3.9 mM and an EC (Ascaridia galli) of 3.9 mM.
`COc1cc(CCC(=O)C[C@@H](O)CCc2ccc(O)c(OC)c2)ccc1O` gave an EC (Rodentolepis nana) of 0.001 mM.
With `CCCCC[C@H](O)C[C@H](O)CCc1ccc(O)c(OC)c1` the EC (Rodentolepis nana) was 0.001 mM.
Work on `CCCC(=O)c1c(O)c(CC2=C(O)C(C)(C)C(O)=C(C(C)=O)C2=O)c(O)c(CC2=C(O)C(C)(C)C(O)=C(C(C)=O)C2=O)c1O` yielded an IC50 [2] of 28 µM.
`CCCC(=O)C1=C(O)C(C)(C)C(O)=C(Cc2c(O)c(CC3=C(O)C(C)(C)C(O)=C(C(C)=O)C3=O)c(O)c(C(=O)CCC)c2O)C1=O` gave an IC50 [2] of 37 µM.
Compound `C[C@@H]1CC[C@]2(C(=O)O)CC[C@]3(C)C(=CC[C@@H]4[C@@]5(C)CC[C@H](O)C(C)(C)[C@@H]5CC[C@]43C)[C@@H]2[C@]1(C)O` [POMOLIC ACID] has an EC (Meloidogyne incognita [1]) of 2.11 mM.
With `CC1(C)CC[C@]2(C(=O)O)CC[C@]3(C)C(=CC[C@@H]4[C@@]5(C)CC[C@H](O)C(C)(C)[C@@H]5CC[C@]43C)[C@@H]2C1` [OLEANOLIC_ACID] the EC (Brugia malayi) was 0.06 to 0.13 mM.
For `CCN(CC)c1ccc2c(C)cc(=O)oc2c1`, the EC (Metaphire posthuma) was 4.32 mM and the EC (Ascaridia galli) was 4.32 mM.
With `CC[C@H](CC[C@@H](C)[C@H]1CC[C@@H]2[C@]1(C)CC[C@H]1[C@@]2(C)CC=C2C[C@@H](O)CC[C@@]21C)C(C)C` the EC (Brugia malayi) was >1.2 mM.
For `CCCCC[C@H](O)C[C@@H](O)CCc1ccc(O)c(OC)c1`, the EC (Rodentolepis nana) was 0.001 mM.
Work on `O=C/C=C/c1ccccc1` [CINNAMALDEHYDE] yielded an EC (Ascaris suum) of 0.2 mM.
